Test results published in patent US20050049204A1, “Compounds for the treatment of flaviviridae infections” (priority 2003, published 2005).
Where two headings read alike, the source gives them in different places.

Legend:
[1] = test system: HCV replicon RNA in Huh7 cells; test: Reversal studies with natural nucleosides: HCV RNA; format: cell-based, hepatitis C virus (HCV)
Procedure: (§1) Incubation times differed according to the type of experiment.
(§2) Cells were incubated with the test compound and, simultaneously, the natural ribo- or 2′-deoxy nucleosides (adenosine, guanosine (G), cytidine (C), uridine (U), 2′-deoxycytidine (dC), 2′-deoxyuridine, thymidine, 2′-deoxyguanosine (dG), and 2′-deoxyadenosine) (Table 2).

[2] = test system: rRNA in HCV replicon Huh7 cells; test: Reversal studies with natural nucleosides: rRNA; format: cell-based; settings: for log10 reduction rRNA: no nucleoside
Procedure: as §1, §2

[3] = test system: HCV-replicon RNA-containing Huh7 cells (HCV RNA); test: HCV replicon assay: HCV RNA quantified by Q-RT-PCR after 96 h of compound exposure; format: cell-based, hepatitis C virus (HCV); settings: for EC90: read-out: Corrected HCV RNA EC90
Procedure: as §1

[4] = test system: HCV replicon-containing Huh7 cell line; test: Dynamics of replicon cell growth (cell count) over a 7-day period
[5] = test system: HCV replicon RNA in Huh7 cells; test: HCV RNA levels in replicon cells over a 7-day period; format: cell-based, hepatitis C virus (HCV)
[6] = test system: rRNA in HCV-replicon RNA-containing Huh7 cells; test: rRNA levels in HCV replicon cells (cellular toxicity), Q-RT-PCR after 96 h; settings: 100 μM
Procedure: HCV replicon cells were seeded in the presence of test compound at approximately 10^3 cells per well in a 96-well plate and incubated for 96 hours. rRNA and HCV RNA were quantified by Q-RT-PCR. ●: HCV RNA levels; ◯: rRNA levels; ▾: HCV RNA levels after correction (=subtraction of rRNA) for cellular toxicity. […] The plots shown are the mean results of at least three independent experiments. EC90 values as given in Table 1 are read from the HCV curves corrected for cellular toxicity.
HCV-replicon RNA-containing Huh7 cells (Clone A cells; Apath, LLC, St. Louis, Mo.) were kept in exponential growth in DMEM media (high glucose, no pyruvate) containing 10% fetal bovine serum, 1× non-essential amino acids (100 units/ml), penicillin-streptomycin (100 μg/ml), glutamine (0.292 mg/ml), and G418 (1,000 μg/ml). Antiviral assays were performed in the same medium without G418. […] Cells were seeded in a 6-well plate at 10^5 cells per well. Candidate antiviral compounds were tested as described (Stuyver, et al. “A ribonucleoside analogue that blocks the replication of bovine viral diarrhea and hepatitis C viruses in culture” Antimicrob. Agents Chemother., January 2003, 47 (1), 244-254). Incubation times differed according to the type of experiment. At the end of the incubation step, cells were counted using the trypan-blue exclusion method, and total cellular RNA was isolated (Rneasy 96 kit, Qiagen, CA). Replicon RNA and an internal control (TaqMan Ribosomal RNA Control Reagents, Applied Biosystems, CA) were amplified in a single-step, multiplex RT-PCR protocol, as recommended by the manufacturer and as described (Stuyver, et al. “A ribonucleoside analogue that blocks the replication of bovine viral diarrhea and hepatitis C viruses in culture” Antimicrob. Agents Chemother., January 2003, 47 (1), 244-254).
Replicon cells were incubated in the absence or presence of these anti-metabolites for 96 hours, after which intracellular rRNA and HCV RNA levels were quantified (Table 1).

[7] = seven-day assay, tested at approximately EC90 value

| SMILES | log10 reduction HCV including natural nucleoside ([1]; 25 μM + C at 50 μM) | log10 reduction rRNA including natural nucleoside ([2]; 25 μM + C at 50 μM) | log10 reduction rRNA ([2]; 25 μM) | log reduction at 10 µM ([3]; Hepatitis C virus, Huh-7, 10 μM, 96 h, corrected by subtraction of rRNA, read-out: Corrected HCV RNA log10 reduction at 10 μM) | log reduction at 100 µM ([3]; Hepatitis C virus, Huh-7, 100 μM, 96 h, corrected by subtraction of rRNA, read-out: Corrected HCV RNA log10 reduction at 100 μM) | log reduction at 100 µM ([3]; Hepatitis C virus, Huh-7, 100 μM, 96 h, read-out: Log10 RNA reduction (100 μM) HCV) | EC90 ([3]; Hepatitis C virus, Huh-7, 96 h, read from HCV curves corrected for rRNA reduction) | effect on cell proliferation ([4]; 100 μM, 7-day period) | reducing the HCV RNA levels ([5]; 100 μM, 7-day period) | Log10 RNA reduction (100 μM) rRNA [6] | log10 reduction HCV including natural nucleoside ([1]; 100 μM + U at 50 μM) | log10 reduction HCV ([1]; 100 μM, no nucleoside) | log10 reduction rRNA including natural nucleoside ([2]; 100 μM + U at 50 μM) | log10 reduction rRNA ([2]; 100 μM) | Corrected HCV RNA log10 reduction at 10 μM ([3]; 10 μM, 96 h, corrected by subtraction of rRNA) | Corrected HCV RNA log10 reduction at 100 μM ([3]; 100 μM, 96 h, corrected by subtraction of rRNA) | EC90 ([3]; Hepatitis C virus, Huh-7, 96 h) | effect on cell growth [4, 7] | inhibition of the HCV RNA replication [5, 7] |
| --- | --- | --- | --- | --- | --- | --- | --- | --- | --- | --- | --- | --- | --- | --- | --- | --- | --- | --- | --- |
| C[C@@]1(O)[C@H](O)[C@@H](CO)O[C@H]1n1ccc(N)nc1=O [2′C—CH3—C, 2′-C-methyl-cytidine] | 0.48 ± 0.02 log10 | 0.14 ± 0.04 log10 | −0.01 ± 0.02 log10 | 1 | 2.21 ± 0.47 | 2.2 ± 0.52 | 10.4 µM | no | very potent | −0.02 ± 0.05 log10 |  |  |  |  |  |  |  |  |  |
| NC(=O)c1[nH]nc([C@@H]2O[C@H](CO)[C@@H](O)[C@H]2O)c1O [pyrazofurin] |  |  |  |  |  |  |  |  |  | 0.42 ± 0.03 log10 | 0.35 ± 0.03 log10 | 1.88 ± 0.05 log10 | −0.01 ± 0.04 log10 | 0.42 ± 0.03 log10 | 1.16 ± 0.21 log10 | 1.46 ± 0.08 log10 | 3.8 µM | minimal effect | very potent inhibition |
